Data on 4 compounds can be found in ChEMBL document CHEMBL1133416, “Solid phase synthesis of diamides as potential bone resorption inhibitors” (Bioorg Med Chem Lett, 2000).

The target of assay [1] is T1, Adenosinetriphosphatase (Gallus gallus, UniProt Q9I8A2). Description: Compound was tested for in vitro inhibition of osteoclast vacuolar acid pump. In kind it is functional.
Assay [2] has as its target T1, Adenosinetriphosphatase. Description: Compound was tested for inhibition of osteoclast vacuolar ATPase derived from chicken medullary bone.
A short description of assay [3]: Compound was tested at 9 uM for inhibition of V-ATPase mediated proton transport in membrane vesicles derived from chicken medullary bone.

T1 sequence (Q9I8A2 whole entry): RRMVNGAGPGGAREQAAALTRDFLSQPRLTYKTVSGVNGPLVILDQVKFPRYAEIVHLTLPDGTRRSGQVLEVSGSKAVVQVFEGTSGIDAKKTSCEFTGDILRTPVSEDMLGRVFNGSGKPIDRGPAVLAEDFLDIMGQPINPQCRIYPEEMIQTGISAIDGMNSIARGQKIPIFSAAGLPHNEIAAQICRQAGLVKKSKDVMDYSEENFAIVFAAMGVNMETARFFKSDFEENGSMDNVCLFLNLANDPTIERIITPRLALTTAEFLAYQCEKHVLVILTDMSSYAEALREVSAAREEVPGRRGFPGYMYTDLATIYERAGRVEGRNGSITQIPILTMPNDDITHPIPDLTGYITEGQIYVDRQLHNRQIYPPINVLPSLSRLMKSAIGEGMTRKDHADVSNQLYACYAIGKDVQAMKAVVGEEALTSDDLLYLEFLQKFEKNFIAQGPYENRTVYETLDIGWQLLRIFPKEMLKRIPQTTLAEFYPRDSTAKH

As for `CC1(C)CC(NC(=O)c2cccc(CC(=O)Nc3ccc(Cl)c(Cl)c3)c2)CC(C)(C)N1`, the IC50 in assay [1] was found to be 4900 nM.

Consider `CO/C(=C\C=C\c1cc2cc(Cl)c(Cl)cc2[nH]1)C(=O)NC1CC(C)(C)NC(C)(C)C1`, for which, in assay [2], half-maximal inhibition (IC50) required 49 nM.

Take `CC1(C)CC(NC(=O)/C=C/C=C/C(=O)Nc2ccc(Cl)c(Cl)c2)CC(C)(C)N1`: the inhibition in assay [3] was 51%. This compound also came in with an IC50 in assay [1] of 1500 nM.

Turning to `CO/C1=C\C(C)=C\[C@@H](C)[C@@H](O)[C@@H](C)C/C(C)=C/C=C/[C@H](OC)[C@@H]([C@@H](C)[C@@H](O)[C@H](C)[C@@]2(O)C[C@@H](O)[C@H](C)[C@@H](C(C)C)O2)OC1=O` [BAFILOMYCIN A1], the IC50 in assay [2] turned out to be 30 nM.

Broadly, the IC50 is the concentration needed to halve the response being measured. A word on the inhibition: it is how much of the control response was suppressed.
